This assay has as its system cigarette smoke-induced COPD. Briefly: Acute (4 day) cigarette smoke exposure COPD model. It counts as in vivo, mouse. The settings on record: acute 4 day smoke model. The procedure: The efficacy of GSNOR inhibitors was assessed in a mouse model of chronic obstructive pulmonary disease (COPD) induced by short duration (4 days or 11 days) of exposure to cigarette smoke. Infiltration of inflammatory cells into the bronchoalveolar lavage fluid (BALF) and BALF levels of chemokines involved in inflammation and tissue turnover/repair were measured to assess the influences of GSNOR inhibitors on some of the early events associated with the initiation and progression of COPD.
Efficacy of GSNOR inhibitors against COPD was explored using acute (4 day) and subchronic (11 day) models of cigarette smoke-induced COPD in mice. […] In animal models, changes in lung pathology are only evident after extended (several months) duration of exposure to cigarette smoke, thus making chronic models prohibitive as effective screening tools. More recently, models exploring inflammatory responses after short duration (2 weeks or less) of smoke exposure in mice have been utilized as tools for screening efficacy and mechanisms of action of novel therapeutics against COPD. The key roles of inflammation in the initiation and progression of COPD, make these short duration models relevant for initial tests of efficacy of novel therapeutics.
Female C57Bl/6 mice (N=8 per group) were exposed to cigarette smoke using a whole body exposure chamber. Mice were exposed daily for 4 consecutive days to 4 cycles of smoke from 6 sequential cigarettes (Kentucky 3R4F without filter) with a 30 minute smoke free interval between cycles. GSNOR inhibitors were administered daily via oral dosing at 10 mg/kg/day for 7 days starting 2 days prior to smoke exposure and continuing 1 day post-exposure. The effects of GSNOR inhibitors were assessed by quantitating the numbers of total cells, leukocytes, and leukocytes differentials in the BALF via light microscopy and the levels of BALF chemokines via ELISA at approximately 24 h after the last smoke exposure. The effect of GSNOR inhibitors were compared to vehicle treated controls. The PDE4 inhibitor, roflumilast, was used as the positive control for the study. A group of naïve mice (N=8) was exposed to air and used as a negative control for the study.

As to `O=c1c2ccc(O)cc2oc(C(F)(F)F)c1[C@H]1CC[C@H](C(=O)O)CC1` [IV-25], the “effects compared with roflumilast” value is on record as “comparable to or greater than those observed for roflumilast”. Further, the BALF chemokines entry (oral 10 mg/kg/day for 7 days) is “restored BALF chemokines towards levels observed in naïve mice”.

(Values after patent US20140094465A1, “Compounds as S-Nitrosoglutathione Reductase Inhibitors” (N30 PHARMACEUTICALS, INC., priority 2011, published 2014).)
